Measurements taken from the NIST ThermoML archive (doi:10.1016/j.jct.2015.04.003).
Numbers after ± are expanded uncertainties.

assay: Boiling temperature at pressure P; settings: 101.33 kPa; Liquid; Ebulliometric method (Recirculating still)

Structure (SMILES)	Boiling temperature at pressure P [°C]
COc1ccccc1O [2-methoxyphenol]	205.10 ± 0.05
COc1ccccc1 [anisole]	153.54 ± 0.05
CCCCOC(C)=O [butyl ethanoate]	125.92 ± 0.05
